Measurements reported in EP0199524B1, “Platinum tramine antitumor agents” (ENGELHARD CORPORATION, priority 1985, dated 1986).
“And” between values parts separate entries of the source, which are not always exact repeats. Equal values may be shown once.

What was measured:
[1] = tested on: S180 ascites; assay: Screening for anti-tumor activity against S180 ascites (S180a) in mice; format: in vivo, female CFW Swiss mice; conditions: for 30-Day Survivors / %ILS: medium H2O; for 30-Day Survivors: survivors/mice in set; for %ILS: injected day 1, S180a in mice, upper limit 100%
Procedure: The compounds were evaluated for anti-tumor activity against S180 ascites in female CFW Swiss mice by the following procedure: CFW mice, averaging 20g, are immediately inspected and placed in newly prepared cages. On day zero the mice are inoculated with 0.2 ml. of a freshly prepared saline suspension (0.15 M NaCl) containing 1 x 10⁷ tumor cells/ml, or a total of 2 x 10⁶ cells. This inoculum is freshly prepared using "transfer" mice which have been injected with tumor cells the previous week. This inoculum is the end-product of a series of steps which involves (1) the removal of the cells from the peritoneal cavity of the sacrificed transfer mouse, (2) alternate centrifugation-washing (2-3 times with cold saline) to remove occasional blood and other undesirable components, and finally (3) dilution (1:3) of the packed cell volume with saline (the final centrifugation being carried out at 1,000 rpm for 2 min.). A cell count is made on a 2,000-fold dilution of this 1:3 suspension by means of a Coulter Counter. A final dilution to 1 x 10⁷ cells/ml. is made based on the averaged count. On day 1, solutions of the test compounds are prepared and the mice injected, with each mouse of a set of six being injected with the same test compound at the same dose level.
ILS values above 50% represent significant activity; those above 75% represent excellent activity.

[2] = literature statement on charged platinum species; cited from earlier work
[3] = 8 mg/kg in saline, positive control run with each experiment, S180a in mice

| SMILES | 30-Day Survivors ([1]; Dose 20 mg/kg, S180a in mice) | %ILS ([1]; Dose 20 mg/kg) [%] | 30-Day Survivors ([1]; Dose 40 mg/kg, S180a in mice) | %ILS ([1]; Dose 40 mg/kg) [%] | 30-Day Survivors ([1]; Dose 80 mg/kg, S180a in mice) | %ILS ([1]; Dose 80 mg/kg) [%] | 30-Day Survivors ([1]; Dose 160 mg/kg, S180a in mice) | %ILS ([1]; Dose 160 mg/kg) [%] | 30-Day Survivors ([1]; Dose 320 mg/kg, S180a in mice) | %ILS ([1]; Dose 320 mg/kg) [%] | 30-Day Survivors ([1]; Dose 10 mg/kg, S180a in mice) | also measured |
| --- | --- | --- | --- | --- | --- | --- | --- | --- | --- | --- | --- | --- |
| Cc1ccc(O)c[n+]1[Pt-2]([NH3+])([NH3+])[Cl].[Cl-] (stereo not drawn) [Example 7, Cis-chlorodiammine-6-methyl-3-hydroxypyridineplatinum(II) chloride] | 0/6 | 30 | 2/6 | 70 | 4/6 | 93 | 3/6 | 82 | 0/6 | -49 | – | 30-Day Survivors ([1]; Dose 640 mg/kg, S180a in mice): 0/6; %ILS ([1]; Dose 640 mg/kg): -75% |
| [Cl-].[NH3+][Pt-2]([NH3+])([Cl])[n+]1ccc(Cl)cc1 (stereo not drawn) [Example 8, Cis-chlorodiammine-4-chloropyridineplatinum(II) chloride] | 2/6 | 68 | 4/6 | 77 | 4/6 | 36 | 0/6 | -77 | 0/6 | -94 | 0/6 | %ILS ([1]; Dose 10 mg/kg): 22% |
| N.N.[Cl-].[Cl][Pt+].c1ccncc1 [Example 18, Trans-Chlorodiamminepyridineplatinum(II) Chloride] | 0/6 | – | 0/6 | – | 0/6 | – | 0/6 | – | – | – | 0/6 | 30-Day Survivors ([1]; Dose 5 mg/kg, S180a in mice): 0/6; %ILS ([1]; Dose 5 mg/kg, 5 mg/kg): 2%; %ILS ([1]; Dose 10 mg/kg, 10 mg/kg): 7%; %ILS ([1]; Dose 20 mg/kg, 20 mg/kg): 6%; %ILS ([1]; Dose 40 mg/kg, 40 mg/kg): 15%; %ILS ([1]; Dose 80 mg/kg, 80 mg/kg): 26%; %ILS ([1]; Dose 160 mg/kg, 160 mg/kg): -70% |
| [Cl-].[Cl][Pt-2]1([n+]2ccccc2)[NH2+]C2CCCCC2[NH2+]1 (centres unmarked) [Example 19, Chloro-1,2-diaminocyclohexanepyridineplatinum(II) chloride] | 0/6 | 8 | 0/6 | 6 | 0/6 | 15 | 0/6 | 25 | 0/6 | -94 | 0/6 | %ILS ([1]; Dose 10 mg/kg): 6% |
| [Cl][Pt-2]([Cl])([Cl])[Cl].[K+].[K+] [K₂PtCl₄] | – | – | – | – | – | – | – | – | – | – | – | antitumor activity [2]: completely inactive |
| N.N.N.N.[Cl][Pt][Cl] [[Pt(NH₃)₄]Cl₂] | – | – | – | – | – | – | – | – | – | – | – | antitumor activity [2]: completely inactive |
| N.N.[Cl][Pt][Cl] [cis-[Pt(NH3)2Cl2], cis-diamminedichloroplatinum(II), reference compound] | – | – | – | – | – | – | – | – | – | – | – | Positive Control 30-Day Survivors [1, 3]: 2/6 and 4/6 and 1/6 and 3/6 and 2/7; Positive Control %ILS [1, 3]: 79% and 66% and 80% and 94% and 73% and 72% and 98%; optimum activity (dose) ([1]; under identical screening): 9 to 10 mg/kg |
